According to patent US6376497B1, “Antifungal azole derivatives having a fluorinated vinyl group and process for preparing same” (Korea Research Institute of Chemical Technology, priority 1999, dated 2002):

What was measured:
Experiment in all cases: In vitro antifungal activity, microbroth dilution MIC
Type in all cases: cell-based
[1] = test system: Candida pseudotropicalis K. 11658; settings: 4 to 48 hours; for Minimal inhibitory concentration(MIC), C. pseudotropicalis K. 11658: RPMI-1640, 35° C., no growth observed
Procedure: (§1) In vitro antifungal activities of the inventive antifungal compounds were evaluated using the test strains shown in Table VIII by the following microbroth dilution method which is a modified version of the procedure recommended by National Committee for Clinical Laboratory Standards(see National Committee for Clinical Laboratory Standards, 1992, Reference methods for broth dilution antifungal susceptibility testing of yeasts, Proposed standard M27-P, National Committee for clinical laboratory standards, Villanova, Pa; and National Committee for Clinical Laboratory Standards, 1995, Reference methods for broth dilution antifungal susceptibility testing of yeasts. Tentative standard M27-T, National Committee for clinical laboratory standards, Villanova, Pa).
(§2) Sabourad Dextrose Agar(Difco) was used as a culture medium, and RPMI-1640 broth(Sigma. Co. w/L-glutamine, wo/NaHCO3)(0.165 M MOPS, pH 7.0), as a dilution medium.
(§3) Each of the test strains were subcultured in Sabourad Dextrose Agar medium twice and a stain sample was taken from prominent colonies and suspended in sterile physiological saline solution in a cap tube. The turbidity of the suspension was adjusted to that of the Mcfarland 0.5 standard sample(approximately 10^6 CFU/ml). Then the suspension was diluted 500-fold with sterile RPMI-1640 liquid medium to 2×10^3 CFU/ml.
(§4) Each of the test compounds(the compounds obtained in Examples 1 to 150 and comparative compounds, i.e., fluconazole(FCZ) and itraconazole (ICZ)), was dissolved in DMSO to give a stock solution having a concentration of 4000 μg/ml and the stock solution was successively diluted to obtain test solutions having test compound concentrations of 200, 100, 50, 25, 12.5, 6.25, 3.13, 1.56, 0.78, 0.39, 0.20 and 0.10 μg/ml, respectively.
(§5) 0.1 ml portion of the test solutions were added to the wells of a sterile 96 well plate. Then, 0.1 ml portion of each of the test strain solutions were added successively to the wells and the plate was incubated at 35° C. for 4 to 48 hours.
(§6) Minimal inhibitory concentration(MIC) of each compound was defined as the concentration of the test compound where no growth of the strain could be observed.

[2] = test system: Cryptococcus neoformans A. 34144; settings: 4 to 48 hours; for Minimal inhibitory concentration(MIC), Cry. neoformans A. 34144: RPMI-1640, 35° C., no growth observed
Procedure: as §1, §2, §3, §4, §5, §6

[3] = test system: Candida albicans A. 10231; settings: RPMI-1640, 35° C., 4 to 48 hours, no growth observed
Procedure: as §1, §2, §3, §4, §5, §6

[4] = test system: Trichophyton mentagrophytes B. 32663; settings: 4 to 48 hours; for Minimal inhibitory concentration(MIC), T. mentagrophytes B. 32663: RPMI-1640, 35° C., no growth observed
Procedure: as §1, §2, §3, §4, §5, §6

[5] = test system: Cryptococcus neoformans IFM. 40092; settings: 4 to 48 hours; for Minimal inhibitory concentration(MIC), Cry. neoformans IFM. 40092: RPMI-1640, 35° C., no growth observed
Procedure: as §1, §2, §3, §4, §5, §6

[6] = test system: Candida parapsitosis A. 7330; settings: 4 to 48 hours; for Minimal inhibitory concentration(MIC), C. parapsitosis A. 7330: RPMI-1640, 35° C., no growth observed
Procedure: as §1, §2, §3, §4, §5, §6

[7] = test system: Torulopsis glabrata B. 16205; settings: 4 to 48 hours; for Minimal inhibitory concentration(MIC), T. glabrata B. 16205: RPMI-1640, 35° C., no growth observed
Procedure: as §1, §2, §3, §4, §5, §6

[8] = test system: Candida tropicalis A. 13803; settings: 4 to 48 hours; for Minimal inhibitory concentration(MIC), C. tropicalis A. 13803: RPMI-1640, 35° C., no growth observed
Procedure: as §1, §2, §3, §4, §5, §6

[9] = test system: Trichophyton mentagrophytes A. 9129; settings: 4 to 48 hours; for Minimal inhibitory concentration(MIC), T. mentagrophytes A. 9129: RPMI-1640, 35° C., no growth observed
Procedure: as §1, §2, §3, §4, §5, §6

[10] = test system: Candida krusei K. 11655; settings: 4 to 48 hours; for Minimal inhibitory concentration(MIC), C. krusei K. 11655: RPMI-1640, 35° C., no growth observed
Procedure: as §1, §2, §3, §4, §5, §6

[11] = test system: Candida albicans C1-2; settings: 4 to 48 hours; for Minimal inhibitory concentration(MIC), C. albicans C1-2: RPMI-1640, 35° C., no growth observed
Procedure: as §1, §2, §3, §4, §5, §6

[12] = test system: Cryptococcus neoformans B. 42419; settings: 4 to 48 hours; for Minimal inhibitory concentration(MIC), Cry. neoformans B. 42419: RPMI-1640, 35° C., no growth observed
Procedure: as §1, §2, §3, §4, §5, §6

[13] = test system: Aspergillus niger A. 16404; settings: 4 to 48 hours; for Minimal inhibitory concentration(MIC), A. niger A. 16404: RPMI-1640, 35° C., no growth observed
Procedure: as §1, §2, §3, §4, §5, §6

[14] = test system: Candida albicans IFO. 1385; settings: 4 to 48 hours; for Minimal inhibitory concentration(MIC), C. albicans IFO. 1385: RPMI-1640, 35° C., no growth observed
Procedure: as §1, §2, §3, §4, §5, §6

[15] = test system: Aspergillus furnigatus B. 19119; settings: 4 to 48 hours; for Minimal inhibitory concentration(MIC), A furnigatus B. 19119: RPMI-1640, 35° C., no growth observed
Procedure: as §1, §2, §3, §4, §5, §6

| Minimal inhibitory concentration(MIC), C. pseudotropicalis K. 11658 [1] | Minimal inhibitory concentration(MIC), Cry. neoformans A. 34144 [2] | Minimal inhibitory concentration(MIC), C. albicans A. 10231 [3] | Minimal inhibitory concentration(MIC), T. mentagrophytes B. 32663 [4] | Minimal inhibitory concentration(MIC), Cry. neoformans IFM. 40092 [5] | Minimal inhibitory concentration(MIC), C. parapsitosis A. 7330 [6] | Minimal inhibitory concentration(MIC), T. glabrata B. 16205 [7] | Minimal inhibitory concentration(MIC), C. tropicalis A. 13803 [8] | Minimal inhibitory concentration(MIC), T. mentagrophytes A. 9129 [9] | Minimal inhibitory concentration(MIC), C. krusei K. 11655 [10] | Minimal inhibitory concentration(MIC), C. albicans C1-2 [11] | Minimal inhibitory concentration(MIC), Cry. neoformans B. 42419 [12] | Minimal inhibitory concentration(MIC), A. niger A. 16404 [13] | Minimal inhibitory concentration(MIC), C. albicans IFO. 1385 [14] | Minimal inhibitory concentration(MIC), A furnigatus B. 19119 [15] | Compound | other results |
| --- | --- | --- | --- | --- | --- | --- | --- | --- | --- | --- | --- | --- | --- | --- | --- | --- |
| >100 µg/mL | 1.56 µg/mL | 25.0 µg/mL | 3.13 µg/mL | 0.39 µg/mL | >100 µg/mL | 50.0 µg/mL | 100 µg/mL | 6.25 µg/mL | >100 µg/mL | 25.0 µg/mL | 3.13 µg/mL | >100 µg/mL | 1.56 µg/mL | >100 µg/mL | FC(Oc1ccc(OCC2COC(Cn3ccnc3)(c3ccc(F)cc3F)O2)cc1)=C(c1cccc(F)c1)C(F)(F)F (mixture of isomers) [Ex. 115] | – |
| 1.56 µg/mL | 0.78 µg/mL | – | 6.25 µg/mL | ≦0.10 μg/ml | 3.13 µg/mL | >100 µg/mL | >100 µg/mL | 12.5 µg/mL | 3.13 µg/mL | >100 µg/mL | 0.78 µg/mL | >100 µg/mL | 1.56 µg/mL | >100 µg/mL | Cc1ccc(C(=C(F)N2CCN(c3ccc(OCC4COC(Cn5ccnc5)(c5ccc(Cl)cc5Cl)O4)cc3)CC2)C(F)(F)F)cc1 (mixture of isomers) [Ex. 126] | – |
| >100 µg/mL | 3.13 µg/mL | >100 µg/mL | 50.0 µg/mL | – | >100 µg/mL | >100 µg/mL | >100 µg/mL | 50.0 µg/mL | >100 µg/mL | >100 µg/mL | 6.25 µg/mL | >100 µg/mL | 6.25 µg/mL | >100 µg/mL | CCc1ccc(C(=C(F)Oc2ccc(OCC3COC(Cn4ccnc4)(c4ccc(Cl)cc4Cl)O3)cc2)C(F)(F)F)cc1 (mixture of isomers) [Ex. 95] | – |
| – | – | – | – | – | – | – | – | – | – | – | – | – | – | – | FC(=Cc1ccc2c(c1)OCO2)OCC1COC(Cn2ccnc2)(c2ccc(F)cc2F)O1 (mixture of isomers) [Ex. 46] | Minimal inhibitory concentration (MIC) ([1]; C. pseudotropicalis K. 11658, RPMI-1640, 35° C.): 12.5 µg/mL; Minimal inhibitory concentration (MIC) ([2]; Cry. neoformans A. 34144, RPMI-1640, 35° C.): 0.78 µg/mL; Minimal inhibitory concentration (MIC) ([4]; T. mentagrophytes B. 32663, RPMI-1640, 35° C.): 0.20 µg/mL; Minimal inhibitory concentration (MIC) ([5]; Cry. neoformans IFM. 40092, RPMI-1640, 35° C.): ≦0.10 μg/ml; Minimal inhibitory concentration (MIC) ([6]; C. parapsitosis A. 7330, RPMI-1640, 35° C.): 25.0 µg/mL; Minimal inhibitory concentration (MIC) ([7]; T. glabrata B. 16205, RPMI-1640, 35° C.): 12.5 µg/mL; Minimal inhibitory concentration (MIC) ([8]; C. tropicalis A. 13803, RPMI-1640, 35° C.): 50.0 µg/mL; Minimal inhibitory concentration (MIC) ([9]; T. mentagrophytes A. 9129, RPMI-1640, 35° C.): 0.39 µg/mL; Minimal inhibitory concentration (MIC) ([10]; C. krusei K. 11655, RPMI-1640, 35° C.): 25.0 µg/mL; Minimal inhibitory concentration (MIC) ([11]; C. albicans C1-2, RPMI-1640, 35° C.): 25.0 µg/mL; Minimal inhibitory concentration (MIC) ([12]; Cry. neoformans B. 42419, RPMI-1640, 35° C.): 0.78 µg/mL; Minimal inhibitory concentration (MIC) ([13]; A. niger A. 16404, RPMI-1640, 35° C.): 12.5 µg/mL; Minimal inhibitory concentration (MIC) ([14]; C. albicans IFO. 1385, RPMI-1640, 35° C.): ≦0.10 μg/ml; Minimal inhibitory concentration (MIC) ([15]; A furnigatus B. 19119, RPMI-1640, 35° C.): 1.56 µg/mL |
